Results on 1 compound are retold here after paper PMC11365428 (The Journal of Biological Chemistry, 2024).

Structures are written as SMILES. Non-standard residues stand in square brackets, D forms with d. Residues, ends and D or L forms follow the SMILES beside them. pGlu = O=C1CC[C@@H](C(=O)O)N1

The assay deals with T1, apTKRPR-A (Aplysia californica, UniProt A0AAU7SSZ1).
T1 sequence (A0AAU7SSZ1 1-398): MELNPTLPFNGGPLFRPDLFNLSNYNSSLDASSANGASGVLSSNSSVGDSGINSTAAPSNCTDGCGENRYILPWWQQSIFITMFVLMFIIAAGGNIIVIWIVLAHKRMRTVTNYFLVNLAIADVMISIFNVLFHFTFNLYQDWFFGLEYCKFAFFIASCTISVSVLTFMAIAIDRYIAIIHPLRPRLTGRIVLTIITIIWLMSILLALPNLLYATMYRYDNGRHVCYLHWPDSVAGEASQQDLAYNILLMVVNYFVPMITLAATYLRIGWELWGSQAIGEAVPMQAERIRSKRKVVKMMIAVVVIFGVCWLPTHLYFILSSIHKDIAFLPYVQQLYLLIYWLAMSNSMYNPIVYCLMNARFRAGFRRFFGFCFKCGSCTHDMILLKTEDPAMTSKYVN
Description: Receptor desensitization assay, protocol 1 (prolonged agonist exposure), apTKRPR-A. Format: cell-based. As to conditions: 10 μM, 2, 5, 10, 15, 30 and 60 min at 37 °C; fold increase over basal; n = 3. As to the method: Therefore, we adopted two protocols to study the desensitization of apTKRPRs. The protocols were performed using a procedure modified from previous work ([87], [88], [89]).
Protocol 1 ([87], [88]): Under continuous (prolonged) stimulation with an agonist, we examined agonist-induced desensitization by quantifying the rate of IP1 accumulation. Specifically, CHO-K1 cells transiently expressing pcDNA3.1-apTKRPRs were incubated in the absence or presence of 10 μM (saturating concentration) apTKRP-2b for the different duration (2, 5, 10, 15, 30, and 60 min) at 37 °C, and intracellular concentrations of IP1 accumulation were measured. Data are presented as fold increase over basal IP1 concentration (Fig. S10).

Regarding `CC(C)C[C@H](NC(=O)[C@H](Cc1c[nH]cn1)NC(=O)[C@@H]1CCCN1C(=O)[C@@H]1CCC(=O)N1)C(=O)NCC(=O)N[C@@H](Cc1ccccc1)C(=O)N[C@@H](Cc1c[nH]cn1)C(=O)NCC(=O)N[C@@H](CO)C(=O)N[C@@H](CCCNC(=N)N)C(N)=O` [apTKRP-2b] ([pGlu]PHLGFHGSR-NH2), the “time course of IP1 accumulation, apTKRPR-A (protocol 1)” value was “initially increased and then reached a plateau”.
